Results on six compounds are retold here after patent US8865634B2, “4-alkyl substituted pyridines as odiferous substances” (Symrise AG, priority 2008, dated 2014).

The nature of experiment [1]: Diffusivity test (Petri dish 50 cm in front of the test subject, intensity rating). To be noted: scale 1-9 (1=odorless to 9=very strong); 0.5 g in Petri dish, 50 cm from test subject, 20-25° C. The text has this:
0.5 g of the odiferous substances to be tested are each weighed in a Petri dish and sealed with the lid. The Petri dish is placed 50 cm in front of the test subject (the distance is marked on the table before the test commences).
The lid is then removed from the Petri dish and a stopwatch is simultaneously started by the test subject. The test subject stops the time immediately they perceive the odor. The test subject assesses the intensity of the sample on a scale of 1=odorless to 9=very strong. The stop time and the intensity are noted on the test sheet.
Each sample is evaluated by the test subject three times. In order to be certain that the result is not distorted, all windows and doors must be shut. The room is at normal temperature (20-25° C.). […] As a rule a minimum of 8 participants evaluate the sample.

Experiment [2] in a line: Threshold value in air (odor perception threshold, sample bag with gas stream). To be noted: equilibrium approximately 18 hours at ambient temperature; as a rule 8 test subjects. As to the method: The odiferous substance to be tested is evaporated in a defined sampling system and then assessed sensorially with regard to the perception threshold. The sampling system comprises the sample bag and a gas stream outlet. A defined quantity of the desired odiferous substance is squirted into the bag. The equilibrium time after filling with the sample is approximately 18 hours at ambient temperature; then the content of the bag is presented to the test subject by means of a constant gas stream. At the first discernable olfactory impression a response button is pressed. The odor threshold concentration is achieved when in the next dilution stage the olfactory impression is confirmed by repeated pressing of the response button. The concentration of the sample is increased between the previous and the next samples by a factor of 2.
The assessment of the threshold value in air is measured against a standard and as a rule 8 test subjects take part in the sensorial evaluation. The participants have no anosmia in respect of the samples to be investigated.

Experiment [3] in a line: Olfactory description of the individual compounds. To be noted: pure compound. The text has this: The olfactory descriptions of the individual compounds are as follows: […]
The nature of experiment [4]: Olfactory evaluation of perfume oils with and without 4-decyl pyridine dosed into products. The text has this:
The composition with 4-n-decyl pyridine also has a fresher radiance overall.
Furthermore, the composition as a whole appears to be more harmonious and rounded.

In experiment [1], `CCCCCCCCCCc1ccncc1` [4-decyl pyridine] came in with a Diffusivity of 8.1. Also, the “Threshold value in air” value in experiment [2] worked out at 0.014 ppm. Besides, in experiment [3], the olfactory description result was “valuable marine character prized and sought after by perfumists”. Besides, the “olfactory effect in perfume oil” value is recorded as “intensifies the transparent fresh head note” in experiment [4] (0.001% in perfume oil F2, 12% perfume oil in ethanol (fine fragrance)); “extreme intensification of the marine-mossy note” in experiment [4] (0.005% in perfume oil A2, 0.3% perfume oil in all-purpose cleaner, versus A1); “boosts (intensifies) the watery-fresh head note of the perfume oil composition” in experiment [4] (0.02% in perfume oil D2, 0.5% perfume oil in shower gel); “intensifies (at a dosing of 0.5% of the perfume oil in the shampoo) the fruity peach/apricot character” in experiment [4] (0.05% in perfume oil S2, 0.5% perfume oil in shampoo); “enormous intensification of the fresh characteristic” in experiment [4] (0.07% in perfume oil C2, 1.2% perfume oil in soap, versus C1); “greatly increases the sought-after violet character” in experiment [4] (1.0% in perfume oil W2, 0.6% perfume oil in fabric conditioner). Further, the “olfactory effect in perfume oil (booster effect)” value in experiment [4] (0.01% in perfume oil P2, 0.3% perfume oil in washing powder, versus P1) was “intensification of the lily of the valley and the fruity notes to a quite exceptional extent”.
On to `CCCCCCCCc1ccncc1` [4-n-octyl pyridine, 4-octyl pyridine], for which the olfactory description entry in experiment [3] is “very intensive marine (watery) odor with an ozone note”.
With `CCCCCCCCCCCCc1ccncc1` [4-n-dodecyl pyridine], the olfactory description result in experiment [3] was “Marine (watery) note, reminiscent of seaweed”.
In experiment [1], `CC(C)=CCCC(C)=CCCc1ccncc1` [Maritima ®, 4-(4,8-dimethyl-3,7-nonadienyl)-pyridine, reference compound] showed a Diffusivity of 3.4. Also, the “Threshold value in air” value in experiment [2] is 0.155 ppm.
In the case of `CCCCCCCCCCCc1ccncc1` [4-n-undecyl pyridine, 4-undecyl pyridine], in experiment [3], the olfactory description entry is on record as “marine character, combining an aldehyde-like note with slight echoes of mandarin”.
Same read-out and setting: the entry for `CCCCCCCCCc1ccncc1` [4-n-nonyl pyridine, 4-nonyl pyridine] is “distinctive odor of the sea”.
